According to PMC4452934 (CPT: Pharmacometrics & Systems Pharmacology, 2015):

Experiment: Excretion in bile-duct cannulated rats
Format: in vivo, rat

## CCn1c(C(=O)N(C2CC2)C2CC2)cc2c3c(ncn3C)c(Nc3cc(C)n(C)n3)nc21 [BMS-911543]
  direct excretion in bile and urine: < 2 % of total clearance
